According to patent US7709636B2, “Pyrazole sulfonylurea compound and herbicide” (Nissan Chemical Industries, Ltd., priority 2004, dated 2010):

Key:
Echinochloa crus-galli [1] = assay: Herbicidal effect test in submerged condition by treatment before weed-generation (1); format: in vivo; details: 0.64 g/a, water surface treated on day of sowing, 3 weeks after treatment
From the text: (§1) Herbicidal Effect Test in Submerged Condition by Treatment Before Weed-Generation (1)
(§2) After alluvial soil was placed in a styrol cup of 1/30000 are, water was poured therein and mixed, and adjusted to a submerged condition of water depth 4 cm. After seeds of Echinochloa crus-galli, Scirpus juncoides and Monochoria vaginalis were sown in the cup, rice seedlings at 2.5th leaf stage were transplanted. On the day when the seeds were sown, the wettable powder of the present invention prepared according to Formulation Example 1 was diluted with water so as to give a predetermined formulation amount, and the surface of the water was treated with the diluted wettable powder. The plants were grown by putting the cup in a green house at 25 to 30° C., and investigated on herbicidal effect against each weed 3 weeks after treatment with the herbicide according to the following criteria.
(§3) 5 Herbicidal rate 90% or more (almost complete death)
(§4) 4 Herbicidal rate 70% or more and less than 90%
(§5) 3 Herbicidal rate 40% or more and less than 70%
(§6) 2 Herbicidal rate 20% or more and less than 40%
(§7) 1 Herbicidal rate 5% or more and less than 20%
(§8) 0 Herbicidal rate 5% or less (little effect)

Monochoria vaginalis [2] = assay: as above; format: in vivo; details: 0.64 g/a, water surface treated on day of sowing, 3 weeks after treatment
From the text: as §1, §2, §3, §4, §5, §6, §7, §8

Scirpus juncoides [3] = assay: as above; format: in vivo; details: 0.64 g/a, water surface treated on day of sowing, 3 weeks after treatment
From the text: as §1, §2, §3, §4, §5, §6, §7, §8

Echinochloa crus-galli [4] = assay: Herbicidal effect test in submerged condition by treatment during weed-growth stage (1); format: in vivo; details: 0.64 g/a, treated at 1st to 2nd leaf stage, 3 weeks after treatment
How it was run: (§9)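 Paddy-soil pots flooded to 4 cm water depth were sown and grown in a greenhouse at 25 to 30° C until weeds reached 1st to 2nd leaf stage. A wettable powder diluted in water to a predetermined formulation amount was applied to the water surface. Herbicidal effect was scored 3 weeks after treatment against set criteria.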

Monochoria vaginalis [5] = assay: as above; format: in vivo; details: 0.64 g/a, treated at 1st to 2nd leaf stage, 3 weeks after treatment
How it was run: as §9

Scirpus juncoides [6] = assay: as above; format: in vivo; details: 0.64 g/a, treated at 1st to 2nd leaf stage, 3 weeks after treatment
How it was run: as §9

Abutilon avicennae [7] = assay: Herbicidal effect test by soil treatment; format: in vivo; details: 1.6 g/a, 3 weeks after treatment
How it was run: (§10)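 Read-out is a visual herbicidal-effect rating taken 3 weeks post-treatment. Plants grew from seed sown in sterilized diluvial soil, covered with about 1.5 cm soil, then surface-sprayed with water-diluted wettable powder at a predetermined formulation amount.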

Amaranthus retroflexus [8] = assay: Herbicidal effect test by soil treatment; format: in vivo; details: 1.6 g/a, 3 weeks after treatment
How it was run: as §10

Ambrosia elatior [9] = assay: Herbicidal effect test by soil treatment; format: in vivo; details: 1.6 g/a, 3 weeks after treatment
How it was run: as §10

Beta vulgaris (beet) [10] = assay: Herbicidal effect test by soil treatment; format: in vivo; details: 1.6 g/a, 3 weeks after treatment
How it was run: as §10

Chenopodium album [11] = assay: Herbicidal effect test by soil treatment; format: in vivo; details: 1.6 g/a, 3 weeks after treatment
How it was run: as §10

Digitaria adscendes [12] = assay: Herbicidal effect test by soil treatment; format: in vivo; details: 1.6 g/a, 3 weeks after treatment
How it was run: as §10

Echinochloa crus-galli [13] = assay: Herbicidal effect test by soil treatment; format: in vivo; details: 1.6 g/a, 3 weeks after treatment
How it was run: as §10

Polygonum blumei [14] = assay: Herbicidal effect test by soil treatment; format: in vivo; details: 1.6 g/a, 3 weeks after treatment
How it was run: as §10

Setaria viridis [15] = assay: Herbicidal effect test by soil treatment; format: in vivo; details: 1.6 g/a, 3 weeks after treatment
How it was run: as §10

Stellaria media [16] = assay: Herbicidal effect test by soil treatment; format: in vivo; details: 1.6 g/a, 3 weeks after treatment
How it was run: as §10

corn (Zea mays) [17] = assay: Herbicidal effect test by soil treatment; format: in vivo; details: 1.6 g/a, 3 weeks after treatment
How it was run: as §10

soybean (Glycine max) [18] = assay: Herbicidal effect test by soil treatment; format: in vivo; details: 1.6 g/a, 3 weeks after treatment
How it was run: as §10

direct sown rice [19] = assay: Herbicidal effect test by soil treatment; format: in vivo, Oryza sativa; details: 1.6 g/a, 3 weeks after treatment
How it was run: as §10

Abutilon avicennae [20] = assay: Herbicidal effect test by foliage treatment; format: in vivo; details: 1.6 g/a; foliage treatment after growth of 14 days; 3 weeks after treatment
From the text: (§11) Herbicidal Effect Test by Foliage Treatment
(§12) Sterilized diluvial soil was placed in a plastic box having a size of length 21 cm, width 13 cm and depth 7 cm, seeds of Echinochloa crus-galli, Digitaria adscendes, Setaria viridis, Avena fatua, Black-grass, Abutilon avicennae, Ambrosia elatior, Amaranthus retroflexus, Chenopodium album, Polygonum blumei, Stellaria media, Zea mays, Glycine max, Oryza sativa, Triticum aestivum and Beta vulgaris were sown interspatially, covered with about 1.5 cm of soil, and then the plants were grown by putting the box in a green house at 25 to 30° C. After growth of 14 days, the wettable powder of the present invention prepared according to Formulation Example 1 was diluted with water so as to give a predetermined formulation amount, and the foliage part was uniformly treated with the diluted wettable powder by use of a small-sized spray. The herbicidal effect for each plant was investigated 3 weeks after treatment with the herbicide according to the criteria indicated in Test Example 1.

Amaranthus retroflexus [21] = assay: Herbicidal effect test by foliage treatment; format: in vivo; details: 1.6 g/a; foliage treatment after growth of 14 days; 3 weeks after treatment
From the text: as §11, §12

Ambrosia elatior [22] = assay: Herbicidal effect test by foliage treatment; format: in vivo; details: 1.6 g/a; foliage treatment after growth of 14 days; 3 weeks after treatment
From the text: as §11, §12

Avena fatua = assay: Herbicidal effect test by foliage treatment; format: in vivo; details: 1.6 g/a; foliage treatment after growth of 14 days; 3 weeks after treatment
From the text: as §11, §12

Beta vulgaris (beet) [23] = assay: Herbicidal effect test by foliage treatment; format: in vivo; details: 1.6 g/a; foliage treatment after growth of 14 days; 3 weeks after treatment
From the text: as §11, §12

Black-grass = assay: Herbicidal effect test by foliage treatment; format: in vivo; details: 1.6 g/a; foliage treatment after growth of 14 days; 3 weeks after treatment
From the text: as §11, §12

Chenopodium album [24] = assay: Herbicidal effect test by foliage treatment; format: in vivo; details: 1.6 g/a; foliage treatment after growth of 14 days; 3 weeks after treatment
From the text: as §11, §12

Digitaria adscendes [25] = assay: Herbicidal effect test by foliage treatment; format: in vivo; details: 1.6 g/a; foliage treatment after growth of 14 days; 3 weeks after treatment
From the text: as §11, §12

Echinochloa crus-galli [26] = assay: Herbicidal effect test by foliage treatment; format: in vivo; details: 1.6 g/a; foliage treatment after growth of 14 days; 3 weeks after treatment
From the text: as §11, §12

Polygonum blumei [27] = assay: Herbicidal effect test by foliage treatment; format: in vivo; details: 1.6 g/a; foliage treatment after growth of 14 days; 3 weeks after treatment
From the text: as §11, §12

Setaria viridis [28] = assay: Herbicidal effect test by foliage treatment; format: in vivo; details: 1.6 g/a; foliage treatment after growth of 14 days; 3 weeks after treatment
From the text: as §11, §12

Stellaria media [29] = assay: Herbicidal effect test by foliage treatment; format: in vivo; details: 1.6 g/a; foliage treatment after growth of 14 days; 3 weeks after treatment
From the text: as §11, §12

[30] = system: Triticum aestivum (wheat); assay: Herbicidal effect test by foliage treatment; format: in vivo; details: 1.6 g/a; foliage treatment after growth of 14 days; 3 weeks after treatment
From the text: as §11, §12

corn (Zea mays) [31] = assay: Herbicidal effect test by foliage treatment; format: in vivo; details: 1.6 g/a; foliage treatment after growth of 14 days; 3 weeks after treatment
From the text: as §11, §12

soybean (Glycine max) [32] = assay: Herbicidal effect test by foliage treatment; format: in vivo; details: 1.6 g/a; foliage treatment after growth of 14 days; 3 weeks after treatment
From the text: as §11, §12

direct sown rice [33] = assay: Herbicidal effect test by foliage treatment; format: in vivo, Oryza sativa; details: 1.6 g/a; foliage treatment after growth of 14 days; 3 weeks after treatment
From the text: as §11, §12

COc1cc(OC)nc(NC(=O)NS(=O)(=O)c2c(C3=NOCC(CI)O3)c(Cl)nn2C)n1 (centres unmarked) [Compound 2, N-((4,6-dimethoxypyrimidin-2-yl)aminocarbonyl)-3-chloro-4-(5-iodomethyl-5H,6H-1,4,2-dioxadin-3-yl)-1-methylpyrazole-5-sulfonamide]
herbicidal effect, A: Echinochloa crus-galli (Echinochloa crus-galli [1]): 4 (Herbicidal rate 70% or more and less than 90%) | herbicidal effect, C: Monochoria vaginalis (Monochoria vaginalis [2]): 5 (Herbicidal rate 90% or more (almost complete death)) | herbicidal effect, B: Scirpus juncoides (Scirpus juncoides [3]): 5 (Herbicidal rate 90% or more (almost complete death)) | herbicidal effect, A: Echinochloa crus-galli (Echinochloa crus-galli [4]): 2 (Herbicidal rate 20% or more and less than 40%) | herbicidal effect, C: Monochoria vaginalis (Monochoria vaginalis [5]): 4 (Herbicidal rate 70% or more and less than 90%) | herbicidal effect, B: Scirpus juncoides (Scirpus juncoides [6]): 4 (Herbicidal rate 70% or more and less than 90%) | herbicidal effect, H: Abutilon avicennae (Abutilon avicennae [7]): 0 (Herbicidal rate 5% or less (little effect)) | herbicidal effect, J: Amaranthus retroflexus (Amaranthus retroflexus [8]): 1 (Herbicidal rate 5% or more and less than 20%) | herbicidal effect, I: Ambrosia elatior (Ambrosia elatior [9]): 3 (Herbicidal rate 40% or more and less than 70%) | herbicidal effect, f: Beta vulgaris (beet) (Beta vulgaris (beet) [10]): 2 (Herbicidal rate 20% or more and less than 40%) | herbicidal effect, K: Chenopodium album (Chenopodium album [11]): 4 (Herbicidal rate 70% or more and less than 90%) | herbicidal effect, D: Digitaria adscendes (Digitaria adscendes [12]): 0 (Herbicidal rate 5% or less (little effect)) | herbicidal effect, A: Echinochloa crus-galli (Echinochloa crus-galli [13]): 0 (Herbicidal rate 5% or less (little effect)) | herbicidal effect, L: Polygonum blumei (Polygonum blumei [14]): 0 (Herbicidal rate 5% or less (little effect)) | herbicidal effect, E: Setaria viridis (Setaria viridis [15]): 0 (Herbicidal rate 5% or less (little effect)) | herbicidal effect, M: Stellaria media (Stellaria media [16]): 3 (Herbicidal rate 40% or more and less than 70%) | herbicidal effect, b: corn (Zea mays) (corn (Zea mays) [17]): 0 (Herbicidal rate 5% or less (little effect)) | herbicidal effect, c: soybean (Glycine max) (soybean (Glycine max) [18]): 0 (Herbicidal rate 5% or less (little effect)) | herbicidal effect, d: direct sown rice (direct sown rice [19]): 0 (Herbicidal rate 5% or less (little effect)) | herbicidal effect, H: Abutilon avicennae (Abutilon avicennae [20]): 5 (Herbicidal rate 90% or more (almost complete death)) | herbicidal effect, J: Amaranthus retroflexus (Amaranthus retroflexus [21]): 0 (Herbicidal rate 5% or less (little effect)) | herbicidal effect, I: Ambrosia elatior (Ambrosia elatior [22]): 4 (Herbicidal rate 70% or more and less than 90%) | herbicidal effect, F: Avena fatua (Avena fatua): 0 (Herbicidal rate 5% or less (little effect)) | herbicidal effect, f: Beta vulgaris (beet) (Beta vulgaris (beet) [23]): 4 (Herbicidal rate 70% or more and less than 90%) | herbicidal effect, G: Black-grass (Black-grass): 1 (Herbicidal rate 5% or more and less than 20%) | herbicidal effect, K: Chenopodium album (Chenopodium album [24]): 4 (Herbicidal rate 70% or more and less than 90%) | herbicidal effect, D: Digitaria adscendes (Digitaria adscendes [25]): 1 (Herbicidal rate 5% or more and less than 20%) | herbicidal effect, A: Echinochloa crus-galli (Echinochloa crus-galli [26]): 3 (Herbicidal rate 40% or more and less than 70%) | herbicidal effect, L: Polygonum blumei (Polygonum blumei [27]): 0 (Herbicidal rate 5% or less (little effect)) | herbicidal effect, E: Setaria viridis (Setaria viridis [28]): 1 (Herbicidal rate 5% or more and less than 20%) | herbicidal effect, M: Stellaria media (Stellaria media [29]): 5 (Herbicidal rate 90% or more (almost complete death)) | herbicidal effect, e: Triticum aestivum (wheat) [30]: 0 (Herbicidal rate 5% or less (little effect)) | herbicidal effect, b: corn (Zea mays) (corn (Zea mays) [31]): 4 (Herbicidal rate 70% or more and less than 90%) | herbicidal effect, c: soybean (Glycine max) (soybean (Glycine max) [32]): 4 (Herbicidal rate 70% or more and less than 90%) | herbicidal effect, d: direct sown rice (direct sown rice [33]): 0 (Herbicidal rate 5% or less (little effect))
